Structures are written as SMILES.

One assay deals with T1, rM4 receptors (Rattus norvegicus, UniProt P08485).
T1 construct: expressed in transfected cells; host or cells: CHO cells
T1 sequence (P08485 1-478): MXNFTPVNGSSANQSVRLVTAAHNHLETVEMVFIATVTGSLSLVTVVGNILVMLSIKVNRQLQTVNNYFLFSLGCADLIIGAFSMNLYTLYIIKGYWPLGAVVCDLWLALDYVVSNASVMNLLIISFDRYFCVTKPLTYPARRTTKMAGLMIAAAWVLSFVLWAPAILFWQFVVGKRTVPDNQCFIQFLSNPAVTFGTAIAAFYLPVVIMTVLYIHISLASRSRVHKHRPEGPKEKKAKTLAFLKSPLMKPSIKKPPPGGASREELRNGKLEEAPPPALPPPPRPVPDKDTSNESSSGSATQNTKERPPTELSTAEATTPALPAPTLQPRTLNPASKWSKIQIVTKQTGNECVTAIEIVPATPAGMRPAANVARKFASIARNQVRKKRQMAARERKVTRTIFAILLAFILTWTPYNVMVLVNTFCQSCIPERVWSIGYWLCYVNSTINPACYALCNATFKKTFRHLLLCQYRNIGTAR
The experiment in a line: Rat M4 PAM pERK assay. In kind it is cell-based. As to conditions: CHO cells expressing rM4; EC20 of acetylcholine (10 nM final); TR-FRET.

Another assay addresses T2, human M4 receptor (Homo sapiens, UniProt P08173).
T2 construct: expressed in transfected cells
T2 sequence (P08173 1-479): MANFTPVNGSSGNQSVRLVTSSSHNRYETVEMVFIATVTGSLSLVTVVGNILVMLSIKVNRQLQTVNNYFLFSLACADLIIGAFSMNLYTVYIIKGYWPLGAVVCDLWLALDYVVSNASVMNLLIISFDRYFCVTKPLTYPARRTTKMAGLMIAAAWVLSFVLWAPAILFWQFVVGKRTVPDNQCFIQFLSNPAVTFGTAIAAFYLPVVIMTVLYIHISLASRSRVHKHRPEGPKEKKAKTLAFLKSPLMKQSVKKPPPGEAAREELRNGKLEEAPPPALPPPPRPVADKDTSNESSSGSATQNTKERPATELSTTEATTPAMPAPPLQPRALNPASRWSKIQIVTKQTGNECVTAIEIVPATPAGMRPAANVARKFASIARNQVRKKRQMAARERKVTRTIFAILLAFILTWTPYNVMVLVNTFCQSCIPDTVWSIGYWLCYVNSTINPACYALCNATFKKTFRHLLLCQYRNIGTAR
Description: M4 GTPγS PAM assay. In kind it is biochemical. As to conditions: membranes of CHO-K1 cells stably expressing human M4; EC20 acetylcholine 40 nM; 35S-GTP. Put shortly:
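CHO-K1 membranes stably expressing human M4, preincubated with compound and 0.1 μM GDP (final) in 20 mM HEPES, 10 mM MgCl2, 100 mM NaCl, pH 7.4, then EC20 acetylcholine (40 nM final). 35S-GTPγS binding 1 h at room temperature, filtration and scintillation counting.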

Consider `COc1nc(C)nc2c1C(C)N(C(=O)CC1CN(c3ccnc(C(F)(F)F)c3)C1)C2` (single isomer, unassigned) [Compound I-52, 1-(4-Methoxy-2,5-dimethyl-5,7-dihydro-6H-pyrrolo[3,4-d]pyrimidin-6-yl)-2-(1-(2-(trifluoromethyl)pyridin-4-yl)azetidin-3-yl)ethan-1-one], for which the EC50 was 0.1 to 0.5 µM at rM4 receptors and no more than 0.1 µM on human M4 receptor.
Consider `COc1nc(C#N)nc2c1C(C)N(C(=O)CC1CN(c3ccnc(C(F)(F)F)c3)C1)C2` (single isomer, unassigned) [Compound I-6, 4-Methoxy-5-methyl-6-(2-(1-(2-(trifluoromethyl)pyridin-4-yl)azetidin-3-yl)acetyl)-6,7-dihydro-5H-pyrrolo[3,4-d]pyrimidine-2-carbonitrile], for which the concentration for a half-maximal effect (EC50) on rM4 receptors was 0.1 to 0.5 µM; at human M4 receptor, no more than 0.1 µM.

(Values after patent US20260209234A1, “SUBSTITUTED DIHYDROPYRROLO[3,4-D]PYRIMIDINE COMPOUNDS AND THEIR USE IN TREATING MEDICAL CONDITIONS” (Karuna Therapeutics, Inc., priority 2022, published 2026).)
